These are literature values, as cited in patent US20210353570A1, “Flutamide Microsphere-Based Arterial Embolization for Treating Prostate Disorders” (Biovena Science, LLC, priority 2018, published 2021).

A word on the bioavailability: it is dose-corrected exposure relative to a reference, in per cent. As a reminder, the half-life is the time needed for the level to fall by half in the phase considered.

Test in data set [1]: not given
This is another data set of the same source.

`CC(C)C(=O)Nc1ccc([N+](=O)[O-])c(C(F)(F)F)c1` [Flutamide, 4′-nitro-3′-trifluoromethyl-isobutyranilide]: the solubility entry is reported as “low solubility”. Further, in data set [1] (after oral administration), the bioavailability is reported as 49%. Further, the half-life in data set [1] (in vivo) was 5 to 6 h.
